Measurements: PMC10818749, “Toxicity Studies of Cardiac-Targeting Peptide Reveal a Robust Safety Profile” (Pharmaceutics, 2024)

What was measured:
HEK-Kv4.3/KChIP2 = HEK-Kv4.3/KChIP2 (Homo sapiens, UniProt Q9NS61+Q9UK17); test: cell-based
cancer cell lines = details: ref Saar and colleagues; cited from earlier work
[1] = test system: leukemia and peripheral blood monocyte cell line; design: method as in PMID 16137634; details: 5 and 10 µM; ref [51]; cited from earlier work
[2] = biological target: T1, HEK-Nav1.5 (Late, Antagonist) (Homo sapiens, UniProt Q14524); type: cell-based; details: antagonist mode; Qube APC (1 conc.); late current, 50nM ATXII; read-out: Estimated IC50 (reference compound)
T1 construct: CYL7004QB2DR (late); host or cells: HEK

HEK-Kir2.1 = biological target: T2, HEK-Kir2.1 (Homo sapiens, UniProt P63252); type: cell-based; details: read-out: Estimated IC50 (reference compound)
T2 construct: host or cells: HEK

CHO-KCNQ1/minK = CHO-KCNQ1/minK (Homo sapiens, UniProt P15382+P51787); details: read-out: Estimated IC50 (reference compound); antagonist mode; Qube APC (1 conc.)

HEK-Kv4.3/KChIP2, sequence (Q9UK17 whole entry): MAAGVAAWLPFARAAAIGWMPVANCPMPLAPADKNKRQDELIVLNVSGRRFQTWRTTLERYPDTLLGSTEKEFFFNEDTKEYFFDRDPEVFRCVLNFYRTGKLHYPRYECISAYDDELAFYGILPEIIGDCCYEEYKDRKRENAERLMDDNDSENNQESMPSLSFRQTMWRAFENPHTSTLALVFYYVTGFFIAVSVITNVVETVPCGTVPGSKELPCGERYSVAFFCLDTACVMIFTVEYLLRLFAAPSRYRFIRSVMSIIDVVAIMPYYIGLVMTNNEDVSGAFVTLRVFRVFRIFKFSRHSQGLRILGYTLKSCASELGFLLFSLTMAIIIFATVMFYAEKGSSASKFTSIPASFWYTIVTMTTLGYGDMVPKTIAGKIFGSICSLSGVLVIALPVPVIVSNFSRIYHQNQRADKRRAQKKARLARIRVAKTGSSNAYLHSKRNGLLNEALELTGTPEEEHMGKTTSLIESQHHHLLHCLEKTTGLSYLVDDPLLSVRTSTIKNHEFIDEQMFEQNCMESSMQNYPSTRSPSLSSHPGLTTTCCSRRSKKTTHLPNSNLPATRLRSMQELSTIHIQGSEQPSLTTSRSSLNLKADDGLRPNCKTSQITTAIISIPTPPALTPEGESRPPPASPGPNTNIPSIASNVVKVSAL
HEK-Kv4.3/KChIP2, sequence (Q9NS61 whole entry partner): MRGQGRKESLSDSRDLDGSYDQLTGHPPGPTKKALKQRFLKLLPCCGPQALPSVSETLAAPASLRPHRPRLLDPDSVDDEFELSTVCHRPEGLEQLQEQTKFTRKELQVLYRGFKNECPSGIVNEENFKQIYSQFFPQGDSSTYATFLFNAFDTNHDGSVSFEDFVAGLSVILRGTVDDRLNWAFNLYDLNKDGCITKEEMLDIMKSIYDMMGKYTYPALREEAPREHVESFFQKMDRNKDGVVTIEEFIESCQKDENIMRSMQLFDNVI
T1 sequence (Q14524 whole entry): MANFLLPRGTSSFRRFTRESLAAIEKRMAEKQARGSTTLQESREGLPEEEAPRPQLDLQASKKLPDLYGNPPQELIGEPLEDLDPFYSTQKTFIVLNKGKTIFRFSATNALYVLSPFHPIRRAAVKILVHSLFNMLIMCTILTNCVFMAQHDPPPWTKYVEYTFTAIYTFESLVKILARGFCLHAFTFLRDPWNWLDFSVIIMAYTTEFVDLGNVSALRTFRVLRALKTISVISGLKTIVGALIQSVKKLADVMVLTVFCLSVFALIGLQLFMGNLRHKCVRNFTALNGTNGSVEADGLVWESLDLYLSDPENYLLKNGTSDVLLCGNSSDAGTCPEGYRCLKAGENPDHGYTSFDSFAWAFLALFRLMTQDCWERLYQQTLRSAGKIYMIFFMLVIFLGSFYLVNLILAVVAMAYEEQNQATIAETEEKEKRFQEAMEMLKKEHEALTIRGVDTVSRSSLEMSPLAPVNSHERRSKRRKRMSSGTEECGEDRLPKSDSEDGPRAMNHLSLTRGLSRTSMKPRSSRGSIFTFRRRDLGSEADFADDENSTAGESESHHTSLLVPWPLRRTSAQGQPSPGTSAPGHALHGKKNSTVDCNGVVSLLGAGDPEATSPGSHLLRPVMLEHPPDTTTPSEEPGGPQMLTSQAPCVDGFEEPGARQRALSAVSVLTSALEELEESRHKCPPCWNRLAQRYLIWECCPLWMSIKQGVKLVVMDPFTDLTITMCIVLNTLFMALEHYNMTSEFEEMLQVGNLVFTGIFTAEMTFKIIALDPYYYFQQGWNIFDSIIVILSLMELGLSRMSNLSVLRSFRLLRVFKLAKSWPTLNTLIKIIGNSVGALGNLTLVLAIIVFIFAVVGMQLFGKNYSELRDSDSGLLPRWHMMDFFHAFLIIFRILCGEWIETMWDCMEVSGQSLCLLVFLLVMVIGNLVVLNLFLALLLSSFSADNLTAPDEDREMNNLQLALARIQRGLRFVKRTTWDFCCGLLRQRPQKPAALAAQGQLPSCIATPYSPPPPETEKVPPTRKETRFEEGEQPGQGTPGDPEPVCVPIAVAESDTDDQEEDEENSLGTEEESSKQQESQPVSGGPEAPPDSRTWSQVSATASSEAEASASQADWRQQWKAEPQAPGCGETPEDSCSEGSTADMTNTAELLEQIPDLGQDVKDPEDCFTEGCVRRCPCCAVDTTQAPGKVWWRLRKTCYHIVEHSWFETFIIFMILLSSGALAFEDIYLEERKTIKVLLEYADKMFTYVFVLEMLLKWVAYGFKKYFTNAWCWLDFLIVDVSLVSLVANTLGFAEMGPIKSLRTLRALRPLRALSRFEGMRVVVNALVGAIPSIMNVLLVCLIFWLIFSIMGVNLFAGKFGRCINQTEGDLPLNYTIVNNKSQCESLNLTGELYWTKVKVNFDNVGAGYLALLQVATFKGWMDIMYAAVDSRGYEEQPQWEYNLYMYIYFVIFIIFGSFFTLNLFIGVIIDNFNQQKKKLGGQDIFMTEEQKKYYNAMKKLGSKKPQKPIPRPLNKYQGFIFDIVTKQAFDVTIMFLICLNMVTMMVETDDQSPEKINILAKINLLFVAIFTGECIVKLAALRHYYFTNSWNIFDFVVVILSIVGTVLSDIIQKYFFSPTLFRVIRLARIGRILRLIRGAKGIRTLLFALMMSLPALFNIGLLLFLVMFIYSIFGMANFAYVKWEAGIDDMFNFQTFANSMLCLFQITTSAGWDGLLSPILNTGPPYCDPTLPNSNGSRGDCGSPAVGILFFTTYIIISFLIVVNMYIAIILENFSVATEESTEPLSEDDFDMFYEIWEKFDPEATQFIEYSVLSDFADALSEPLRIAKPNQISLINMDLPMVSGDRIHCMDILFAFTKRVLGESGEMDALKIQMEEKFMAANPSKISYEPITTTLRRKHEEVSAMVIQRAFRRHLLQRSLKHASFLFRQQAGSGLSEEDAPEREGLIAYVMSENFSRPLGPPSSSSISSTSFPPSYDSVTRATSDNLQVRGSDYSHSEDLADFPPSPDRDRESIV
T2 sequence (P63252 whole entry): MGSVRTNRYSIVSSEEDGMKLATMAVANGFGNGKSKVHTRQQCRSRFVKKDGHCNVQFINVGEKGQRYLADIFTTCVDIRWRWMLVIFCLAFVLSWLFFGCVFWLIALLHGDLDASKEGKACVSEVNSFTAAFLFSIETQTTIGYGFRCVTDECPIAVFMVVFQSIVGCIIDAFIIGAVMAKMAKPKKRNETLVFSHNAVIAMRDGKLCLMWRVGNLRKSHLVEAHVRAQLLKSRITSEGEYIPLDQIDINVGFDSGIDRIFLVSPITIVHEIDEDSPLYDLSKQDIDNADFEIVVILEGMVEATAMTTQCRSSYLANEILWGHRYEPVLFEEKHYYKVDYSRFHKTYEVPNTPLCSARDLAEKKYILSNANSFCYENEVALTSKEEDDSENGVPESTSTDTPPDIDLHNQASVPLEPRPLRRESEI

O=C(NCC1CCCCN1)c1cc(OCC(F)(F)F)ccc1OCC(F)(F)F (stereo not shown) [Flecainide]
IC50 (HEK-Kv4.3/KChIP2): 12.5 µM

transportan 10
membrane leakage of lactate dehydrogenase (cancer cell lines): significant leakage | cytokine release [1]: no increase in cytokine levels

pVEC: well-characterized, non-cell-specific CPP (TLLIILRRRIRKQAHAHS; UniProt P55284 615-632, looked up, fragment)
membrane leakage of lactate dehydrogenase (cancer cell lines): minimal membrane leakage of lactate dehydrogenase

COc1ccccc1OCC(O)CN1CCN(CC(=O)Nc2c(C)cccc2C)CC1 (stereo not shown) [Ranolazine, reference compound]
IC50 [2]: 72.5 µM

[Ba+2].[Cl-].[Cl-] [Barium Chloride, reference compound]
IC50 (HEK-Kir2.1): 17.7 µM

CCS(=O)(=O)N(C)[C@H]1c2cc(C#N)ccc2OC(C)(C)[C@@H]1O (racemic) [Chromanol 293B, reference compound]
IC50 (CHO-KCNQ1/minK): 21.5 µM
